In patent US20250144067A1, “PERSONALIZED STARVATION THERAPY FOR CANCER” (Faeth Therapeutics, Inc., priority 2021, published 2025):
Read-outs that look alike come from different tables or passages of the source.

Legend:
[1] = system: NCI-H292 lung cancer cells; assay: FDA drug screening, complete media vs cholesterol-free media without statin (TABLE 1); type: cell-based, human
[2] = system: NCI-H292 lung cancer cells; assay: FDA drug screening, complete media vs cholesterol-free media with simvastatin (TABLE 2); type: cell-based, human
[3] = Complete minus Cholesterol-free, greater than 0 enhanced anti-cancer activity, about 0 neutral, below 0 antagonist
[4] = NCI-H292 cells, FDA drug library screen, cholesterol-free media without statin
[5] = NCI-H292 cells, FDA drug library screen, complete media
[6] = NCI-H292 cells, drug in cholesterol-free media with simvastatin 0.04 μM
[7] = NCI-H292 cells, drug in complete media
[8] = complete media vs cholesterol-free media + simvastatin (0.04 μM), >0 enhanced anti-cancer activity, about 0 neutral, <0 antagonist
[9] = Complete minus Cholesterol-free, >0 enhanced anti-cancer activity, about 0 neutral, <0 antagonist
[10] = NCI-H292 cells, cholesterol-free media without statin, FDA drug library screen
[11] = NCI-H292 cells, complete media, FDA drug library screen
[12] = NCI-H292 cells, cholesterol-free media without statin
[13] = complete vs cholesterol-free media, greater than 0 enhanced anti-cancer activity, about 0 neutral, below 0 antagonists
[14] = NCI-H292 cells, FDA drug library screen, cholesterol-free media with simvastatin 0.04 μM
[15] = complete media minus cholesterol-free media + simvastatin, >0 enhanced anti-cancer activity, about 0 neutral, <0 antagonist
[16] = NCI-H292 cells, FDA library drug in cholesterol-free media with simvastatin 0.04 μM
[17] = NCI-H292 cells, FDA library drug in complete media
[18] = complete vs cholesterol-free media, >0 enhanced anti-cancer activity, about 0 neutral, <0 antagonist
[19] = NCI-H292 cells, cholesterol-free media with simvastatin 0.04 μM, FDA drug library screen (TABLE 2)
[20] = complete media minus cholesterol-free media + simvastatin (0.04 μM), >0 enhanced anti-cancer activity, about 0 neutral, <0 antagonist
[21] = NCI-H292 cells, cholesterol-free media with simvastatin 0.04 μM, cell growth value in FDA drug screen
[22] = NCI-H292 cells, complete media, cell growth value in FDA drug screen
[23] = NCI-H292 cells, complete media, FDA drug library screen (TABLE 2)
[24] = Complete minus Cholesterol-free, greater than 0 enhanced anti-cancer activity, about 0 neutral, below 0 antagonists
[25] = NCI-H292 cells in cholesterol-free media without statin
[26] = NCI-H292 cells in complete media

COc1cc([C@@H]2c3cc4c(cc3[C@@H](O[C@@H]3O[C@@H]5CO[C@@H](c6cccs6)O[C@H]5[C@H](O)[C@H]3O)[C@H]3COC(=O)[C@H]23)OCO4)cc(OC)c1O [Teniposide]
Difference [1, 3]: −0.09 | Cholesterol-free [1, 4]: 0.1831 | Complete [1, 5]: 0.09739 | Cholesterol-free media + simvastatin (0.04 μM) [2, 6]: 0.3807 | Complete Media [2, 7]: 0.1883 | Difference [2, 8]: −0.19

Cc1ccc(O)c([C@H](CCN(C(C)C)C(C)C)c2ccccc2)c1 [Tolterodine]
Cholesterol-free [1]: 0.9758 | Complete [1]: 1.051 | Difference [1]: 0.08 | Cholesterol-free media + simvastatin (0.04 μM) [2]: 1.169 | Complete Media [2]: 0.8561 | Difference [2]: −0.31

[H]/N=C(\N/C(=N/[H])Nc1ccc(Cl)cc1)NC(C)C [Proguanil]
Difference [1, 3]: −0.09 | Cholesterol-free [1, 4]: 1.148 | Complete [1, 5]: 1.059 | Cholesterol-free media + simvastatin (0.04 μM) [2, 6]: 1.355 | Difference [2, 8]: −0.18

CO/N=C(\C(=O)N[C@@H]1C(=O)N2C(C(=O)O)=CCS[C@H]12)c1csc(N)n1 [Ceftizoxime]
Difference [1, 9]: 0.03 | Cholesterol-free [1, 10]: 1.031 | Complete [1, 11]: 1.057 | Cholesterol-free media + simvastatin (0.04 μM) [2, 6]: 1.55 | Complete Media [2, 7]: 1.371 | Difference [2, 8]: −0.18

CCCN1CCCC[C@H]1C(=O)Nc1c(C)cccc1C.CS(=O)(=O)O [Ropivacaine (mesylate)]
Cholesterol-free [1, 12]: 1.155 | Complete ([1]; NCI-H292 cells, complete media): 0.7954 | Difference [1, 13]: −0.36 | Cholesterol-free media + simvastatin (0.04 μM) [2, 14]: 0.9302 | Difference [2, 15]: 0.22

O=C(C1CCCCC1)N1CC(=O)N2CCc3ccccc3C2C1 (centres unmarked) [Praziquantel]
Cholesterol-free [1, 12]: 1.485 | Complete ([1]; NCI-H292 cells, complete media): 1.043 | Difference [1, 13]: −0.44 | Cholesterol-free media + simvastatin (0.04 μM) [2, 16]: 1.644 | Complete Media [2, 17]: 1.108 | Difference [2, 8]: −0.54

Toremifene (citrate)
Complete [1]: 0.7656 | Difference [1]: −0.28 | Cholesterol-free media + simvastatin (0.04 μM) [2]: 0.4491 | Difference [2]: 0.61

COC(=O)N[C@H](C(=O)N1CCC[C@H]1c1nc(-c2ccc(-c3ccc(-c4c[nH]c([C@@H]5CCCN5C(=O)[C@@H](NC(=O)OC)C(C)C)n4)cc3)cc2)c[nH]1)C(C)C [Daclatasvir]
Difference [1, 9]: 0.04 | Cholesterol-free [1, 10]: 0.703 | Complete [1, 11]: 0.7437 | Cholesterol-free media + simvastatin (0.04 μM) [2, 14]: 0.9463 | Complete Media [2, 5]: 1.136 | Difference [2, 15]: 0.19

Nc1nc(NC2CC2)c2ncn([C@H]3C=C[C@@H](CO)C3)c2n1 [Abacavir]
Cholesterol-free [1, 10]: 0.6425 | Complete [1, 11]: 1.2 | Difference [1, 18]: 0.56 | Cholesterol-free media + simvastatin (0.04 μM) [2, 14]: 1.851 | Complete Media [2, 5]: 2.026 | Difference [2, 15]: 0.18

O=C(O)c1cc(/N=N/c2ccc(O)c(C(=O)O)c2)ccc1O [Olsalazine (Disodium)]
Difference [1, 9]: −0.25 | Cholesterol-free [1, 12]: 1.211 | Complete ([1]; NCI-H292 cells, complete media): 0.9604 | Cholesterol-free media + simvastatin (0.04 μM) [2, 19]: 1.218 | Difference [2, 20]: −0.07

O=C(CCCN1CCC(O)(c2ccc(Cl)cc2)CC1)c1ccc(F)cc1 [Haloperidol]
Cholesterol-free [1, 10]: 0.4782 | Complete [1, 11]: 0.7598 | Difference [1, 18]: 0.28 | Cholesterol-free media + simvastatin (0.04 μM) [2, 21]: 0.8115 | Complete Media [2, 22]: 0.843 | Difference [2, 15]: 0.03

Baricitinib (phosphate)
Difference ([1]; Complete minus Cholesterol-free, […]): −0.20 | Cholesterol-free [1, 12]: 0.7762 | Complete ([1]; NCI-H292 cells, complete media): 0.5811 | Cholesterol-free media + simvastatin (0.04 μM) [2, 14]: 0.6632 | Complete Media [2, 5]: 0.5619 | Difference ([2]; complete media vs cholesterol-free media + simvastatin (0.04 μM), […]): −0.10

Cn1c(=O)c2[nH]cnc2n(C)c1=O [Choline theophyllinate]
Difference [1, 9]: −0.20 | Cholesterol-free [1, 12]: 1.108 | Complete ([1]; NCI-H292 cells, complete media): 0.9038 | Cholesterol-free media + simvastatin (0.04 μM) [2, 14]: 1.275 | Difference [2, 8]: −0.10

Cc1ccc(C(C)C)cc2c(C)ccc1-2 [Guaiazulene]
Difference [1, 9]: −0.21 | Cholesterol-free [1, 12]: 1.231 | Complete ([1]; NCI-H292 cells, complete media): 1.025 | Cholesterol-free media + simvastatin (0.04 μM) [2, 6]: 1.916 | Complete Media [2, 7]: 1.674 | Difference [2, 8]: −0.24

Cc1cnc(C(=O)N[C@H]2CCCCC/C=C\[C@@H]3C[C@@]3(C(=O)NS(=O)(=O)C3CC3)NC(=O)[C@@H]3C[C@@H](Oc4nc5ccccc5c5ccccc45)CN3C2=O)cn1 [Paritaprevir]
Difference [1, 9]: −0.03 | Cholesterol-free [1, 10]: 0.9471 | Complete [1, 11]: 0.9198 | Cholesterol-free media + simvastatin (0.04 μM) [2, 19]: 1.147 | Complete Media [2, 23]: 1.102 | Difference [2, 20]: −0.05

OC(Cn1cncn1)(Cn1cncn1)c1ccc(F)cc1F [Fluconazole]
Cholesterol-free [1, 12]: 1.23 | Complete ([1]; NCI-H292 cells, complete media): 0.8337 | Difference [1, 13]: −0.40 | Cholesterol-free media + simvastatin (0.04 μM) [2, 16]: 1.268 | Complete Media [2, 17]: 0.9392 | Difference [2, 8]: −0.33

CCc1cc2c(cc1CC)CC(NC[C@H](O)c1ccc(O)c3[nH]c(=O)ccc13)C2 [Indacaterol]
Cholesterol-free [1, 10]: 0.6776 | Complete [1, 11]: 1.376 | Difference [1, 18]: 0.70 | Cholesterol-free media + simvastatin (0.04 μM) [2, 14]: 0.7696 | Complete Media [2, 5]: 1.1 | Difference [2, 15]: 0.33

CC1=C(CC(=O)O)c2cc(F)ccc2/C1=C\c1ccc([S+](C)[O-])cc1 (centres unmarked) [Sulindac]
Difference [1, 24]: −0.48 | Cholesterol-free [1, 25]: 1.336 | Complete [1, 26]: 0.8519 | Cholesterol-free media + simvastatin (0.04 μM) [2, 19]: 1.193 | Difference [2, 20]: −0.02

O=c1cc[nH]c(=O)[nH]1 [Uracil]
Difference [1, 3]: −0.17 | Cholesterol-free [1, 4]: 1.032 | Complete [1, 5]: 0.8653 | Cholesterol-free media + simvastatin (0.04 μM) [2, 16]: 1.203 | Complete Media [2, 17]: 0.8949 | Difference [2, 8]: −0.31

CC(C)/N=c1\cc2n(-c3ccc(Cl)cc3)c3ccccc3nc-2cc1Nc1ccc(Cl)cc1 [Clofazimine]
Cholesterol-free [1, 12]: 0.8398 | Complete ([1]; NCI-H292 cells, complete media): 0.4066 | Difference [1, 13]: −0.43 | Cholesterol-free media + simvastatin (0.04 μM) [2, 19]: 0.9946 | Complete Media [2, 23]: 0.9365 | Difference [2, 20]: −0.06

O=C(CCC/C=C\C[C@@H]1[C@@H](CC[C@@H](O)CCc2ccccc2)[C@H](O)C[C@@H]1O)OCCCCO[N+](=O)[O-] [Latanoprostene bunod]
Cholesterol-free [1, 10]: 0.8229 | Complete [1, 11]: 1.464 | Difference [1, 18]: 0.64 | Cholesterol-free media + simvastatin (0.04 μM) [2, 14]: 1.139 | Complete Media [2, 5]: 1.004 | Difference [2, 8]: −0.14

O=C1Cc2cc(CCN3CCN(c4nsc5ccccc45)CC3)c(Cl)cc2N1 [Ziprasidone]
Difference [1, 24]: −0.52 | Cholesterol-free [1, 25]: 1.408 | Complete [1, 26]: 0.89 | Cholesterol-free media + simvastatin (0.04 μM) [2, 21]: 0.9155 | Complete Media [2, 22]: 0.9832 | Difference [2, 15]: 0.07

C#C[C@]1(O)C=C[C@H]2[C@@H]3CCC4=CC(=O)CC[C@@H]4[C@H]3CC[C@@]21CC [Gestodene]
Difference [1, 3]: −0.11 | Cholesterol-free [1, 4]: 1.134 | Complete [1, 5]: 1.023 | Cholesterol-free media + simvastatin (0.04 μM) [2, 16]: 1.543 | Complete Media [2, 17]: 1.003 | Difference [2, 8]: −0.54
